# Reference: publication PMC1079869 (BMC Neuroscience, 2005)
# Entries after “also recorded” stand apart in the source; their conditions may differ.
# Legend:
# pain = system: pain; parameters: method as in 5 sources, ref 1 = [1]; PMID 3865193; doi:10.1073/pnas.82.22.7757; Yang H-YT Fratta W Majane EA Costa E Isolation, sequencing, synthesis, and pharmacological characterization of two brain neuropeptides that modulate the action of morphine Proc Natl Acad Sci U S A 198 ||| ref 4 = [4]; PMID 8821539; doi:10.1111/j.1476-5381.1996.tb15217.x; Gouarderes C Jhamandas K Sutak M Zajac JM Role of opioid receptors in the spinal antinociceptive effects of neuropeptide FF analogues Br J Pharmacol 1996 117 493 501 8821539 10.1111/j.1476-5381.1996.t ||| ref 44 = [44]; PMID 10499424; doi:10.1016/S0196-9781(99)00100-X; Xu M Kontinen VK Panula P Kalso E Effects of (1DMe)NPYF, a synthetic neuropeptide FF analogue, in different pain models Peptides 1999 20 1211 1217 10499424 10.1016/S0196-9781(99)00100-X ||| ref 4, 44 = [4]; PMID 8821539; doi:10.1111/j.1476-5381.1996.tb15217.x; Gouarderes C Jhamandas K Sutak M Zajac JM Role of opioid receptors in the spinal antinociceptive effects of neuropeptide FF analogues Br J Pharmacol 1996 117 493 501 8821539 10.1111/j.1476-5381.1996.t || [44]; PMID 10499424; doi:10.1016/S0196-9781(99)00100-X; Xu M Kontinen VK Panula P Kalso E Effects of (1DMe)NPYF, a synthetic neuropeptide FF analogue, in different pain models Peptides 1999 20 1211 1217 10499424 10.1016/S0196-9781(99)00100-X ||| ref 46 = [46]; PMID 12507715; doi:10.1016/S0304-3959(02)00333-0; Cahill CM Morinville A Hoffert C O'Donnell D Beaudet A Up-regulation and trafficking of delta opioid receptor in a model of chronic inflammation: implications for pain control Pain 2003 101 199 208 12; details: cited from earlier work; for effect on NPFF-induced analgesia / antinociception: opioid antagonist against intrathecal NPFF; for antagonism of analgesic effects of NPFF in vivo: opioid antagonists
# [1] = molecular target: T1, c-MYC-tagged human delta opioid receptor (Homo sapiens, UniProt P41143); experiment: FACS analysis of agonist-induced DOR internalization (cell surface fluorescence)
# T1 sequence (P41143 whole entry): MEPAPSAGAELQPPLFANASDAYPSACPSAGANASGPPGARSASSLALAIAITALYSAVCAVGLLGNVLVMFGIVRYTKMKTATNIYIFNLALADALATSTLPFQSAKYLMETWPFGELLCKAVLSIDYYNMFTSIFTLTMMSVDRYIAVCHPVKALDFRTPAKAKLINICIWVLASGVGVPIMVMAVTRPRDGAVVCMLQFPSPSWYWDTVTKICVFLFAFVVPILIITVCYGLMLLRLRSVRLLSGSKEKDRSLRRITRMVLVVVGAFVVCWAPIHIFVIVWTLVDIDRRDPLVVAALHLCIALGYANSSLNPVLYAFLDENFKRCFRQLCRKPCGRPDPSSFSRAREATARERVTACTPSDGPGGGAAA
# Experimental: The CHO/MYChDOR cells were collected and suspended into the culture medium. The cells were treated with drugs in suspension as for the immunocytochemistry for the indicated times. After the incubation, the membrane trafficking was stopped by rapidly chilling the cells on ice and removing the medium. After this the cells were kept on ice. The cells were washed with PBS and stained in PBS-suspension with rabbit anti-MYC antibody (1 % normal goat serum (v/v) used to block unspecific binding), followed by the detection with a fluorescent secondary antibody. Dead cells were detected with isopropidium iodide. Cells were analyzed with FACScan flow cytometer (Becton Dickinson and Co., Mountain View, CA, USA). Data from 10000 cells were collected for each run and each sample was run in replicate or triplicate.
# The internalization percent was calculated as: [drawing 1] where F(ctrl) in the fluorescence of the time-matched control cells and the F(sample) is the fluorescence measured from the drug-treated cells.
# 10000 cells/sample were analyzed with FACS.
# neuropathic rats = details: periaqueductal grey; cited from earlier work
# Text: (§1) The interaction between NPFF and opioid system in pain and analgesia seems to be complex in nature and the molecular mechanisms behind the observed physiological effects are not known. […] In the rat spinal cord, the highest NPFF-like immunoreactivity is found in the superficial layers of the dorsal h ...
# opioid receptor subtypes = details: any opioid receptor subtype; cited from earlier work
# Text: as §1
# [2] = system: opioid withdrawal syndrome; details: supraspinal administration; cited from earlier work
# Text: as §1
# presynaptic DOR = details: pontine parabrachial nucleus, via presynaptic DOR; cited from earlier work
# Text: as §1
# NPFF1R = details: cited from earlier work
# Text: (§2) At the physiological level NPFF seems to have both a direct analgesic effect and a modulatory effect on the opioid system. Some of the effects may be mediated via the NPFF receptors as two such receptors, NPFF1R and NPFF2R, have been identified. […] Also the other RFamide peptides bind to the NPFF receptors with varying affinities, and therefore the exact nature of the receptor-ligand interactions between RFamides and their receptors is still unclear.
# NPFF2R = details: cited from earlier work
# Text: as §2
# rat pituitary cells = details: cited from earlier work
# Text: The dose-dependence of NPFF-agonist on the BMAX was bell-shaped. This could imply that the NPFF-analogue affects only some conformations of the receptor. […] However, the receptor involved in the prolactin release mechanism was not characterized.
# [3] = molecular target: T1, c-MYC-tagged human delta opioid receptor; experiment: Tb-DeltI binding on CHO/MYChDOR whole cells, effect of (1DMe)NPYF (time-resolved fluorometry)
# Experimental: 6 μg of crude membrane preparations or whole cells (25 000 cell/well) that were plated one day before experiment and fixed with 4 % PFA for 10 min at room temperature, were used in the saturation binding experiments. The whole cell assays were carried out on normal cell culture plates and the assays with membrane preparations on special filter plates (Pall Life Sciences). The cells or membranes were incubated in 50 mM Tris/HCl pH 7.5; 2.5 mM MgCl2; 60 mM NaCl; 25 μM EDTA, 0.2 % BSA (w/v) for 90 min at room temperature with 0.01 – 781.25 nM Tb-DeltI in the presence or absence of 1 or 5 μM unlabeled DeltI. To study the effect of (1DMe)NPYF on the Tb-DeltI binding, 1–1000 nM (1DMe)NPYF was added together with unlabeled DeltI. After the incubation the unbound Tb-DeltI was removed by washing the plates four times with 50 mM Tris/HCl pH 7.5; 2.5 mM MgCl2. Vacuum pump system was used to wash the filter plates. Since the chelate-bound Tb-ion is nonfluorescent, it needed to be released from the complex. In order to release Tb-ion from the chelate 150 μl Delfia enhancement solution was added to the wells and the plates were incubated on a shaker for 15 min. Thereafter, 40 μl Delfia enhancer that changes the pH of the assay solution appropriate for Tb-fluorescence was added, and the plates were further incubated for 5 min on a shaker. The time-resolved fluorescence of the released Tb-ion was measured with Victor^2 Multilabel counter (Perkin Elemer Wallac, Turku, Finland).
# [4] = molecular target: T1, c-MYC-tagged human delta opioid receptor; format: cell-based
# [5] = system: MAP-kinase p42MAPK (ERK2); experiment: Phosphorylation of MAPK (ERK2) in CHO/MYChDOR cells, immunoblot; format: cell-based, Chinese hamster
# Experimental: 25000 cells/well were seeded onto 24-well plates and incubated o/n. The medium was replaced with serum-free medium and the cells were incubated for one hour at 37°C. […] The reaction was stopped by removing the medium and adding modified RIPA-lysis buffer (PBS, pH 7.6; 1 % Nonidet P-40 (v/v); 0.5 % sodium deoxycholate (w/v); 0.1 % SDS (w/v), 10 mM NaF; 0.4 mM PMSF, 10 μg/ml aprotinin, 10 μg/ml leupeptin, 2 mM […]; 0.2 mM bestatin). Cells were lysed on ice for 15 min and the lysates were collected. The protein content was determined with the Bradford method.
# 10 μg of protein was analyzed on 10 % SDS-PAGE gel and the gel was blotted onto nitrocellulose membrane. […] After washes, the membrane was detected with the ECL-protocol. The band intensities were measured with AlphaDigiDoc1000 documentation system (Alpha Innotech, San Leandro, CA, USA). […]
# Figure 6 DOR agonist induced phosphorylation of the MAP-kinase, ERK2, is increased by (1DMe)NPYF. A. Total cell lysates (10 μg protein per lane) were detected with phosphoERK2 and total ERK2 specific antibodies. […] B. The band intensities of phosphoERK2 were quantified and they are presented as relative band intensities with respect to the total ERK2. […] The statistical significance between time-points and treatments was analyzed with two-way Anova with Bonferroni's post-test, n = 5. […]
# [6] = 100 nM (1DMe)NPYF alone, 5, 10, 30 min, 37°C
compound,measurement,setting,value
C=CCN1CC[C@]23c4c5ccc(O)c4O[C@H]2C(=O)CC[C@@]3(O)[C@H]1C5 [naloxone],effect on NPFF-induced analgesia / antinociception,pain,reduced
same,antagonism of analgesic effects of NPFF in vivo,pain,blocked
"Y-D-AFDVVG-NH2 [DeltI, peptidic DOR agonist]",enhanced antinociceptive activity correlated with receptor recruitment,"pain; recruitment of spinal opioid receptors to plasma membrane, inflammation",enhanced antinociceptive activity of DeltI is correlated with the recruitment of spinal opioid receptors from intracellular stores to the plasma membrane
Oc1ccc2c3c1O[C@H]1c4[nH]c5ccccc5c4C[C@@]4(O)[C@@H](C2)N(CC2CC2)CC[C@]314 [naltrindole],effect on NPFF-induced analgesia / antinociception,pain,inhibits the NPFF-induced antinociception; also recorded: reduced
same,antagonism of analgesic effects of NPFF in vivo,pain,blocked
same,block of receptor activation by DOR agonists and of enhanced activation by co-applied (1DMe)NPYF,[1]; DOR antagonist with DOR agonists ± (1DMe)NPYF,could completely block
"FLFQPQRFamide [NPFF, RFamide peptide originally isolated from bovine brain]",attenuation of tactile allodynia,neuropathic rats,selective attenuation of tactile allodynia
same,displacement of opioid receptor ligands,opioid receptor subtypes,does not displace opioid receptor ligands from any of the opioid receptor subtypes
same,opioid withdrawal syndrome,[2],precipitates opioid withdrawal syndrome
same,modulation of synaptic transmission,presynaptic DOR,modulates synaptic transmission through interaction with presynaptic DOR
same,binding to NPFF1R,NPFF1R,binds to both of them
same,binding to NPFF2R,NPFF2R,binds to both of them
same,effect on opiate-induced analgesia,pain,potentiated
same,"analgesia, intrathecal",pain; intrathecal,long-lasting analgesia
same,effect on opioid antinociception,pain; supraspinal administration,attenuates opioid antinociception
same,"effect on prolactin release, dose-response",rat pituitary cells,bell-shaped dose-response curve
D-YL-(NMe)-FQPQRF-NH2 [(1DMe)NPYF],effect on the BMAX for Tb-DeltI,"[3]; 1 nM and 10 nM (1DMe)NPYF, whole cells",significantly decreased the BMAX
same,effect on the KD for Tb-DeltI,"[3]; 1–1000 nM (1DMe)NPYF, whole cells",only modestly affected
same,dose-dependence of effect on the BMAX,"[3]; 1–1000 nM, whole cells",bell-shaped
same,effect on the BMAX for Tb-DeltI,"[3]; higher concentrations of (1DMe)NPYF, whole cells",affected the BMAX only modestly
same,displacement of Tb-DeltI at micromolar concentration,"[3]; only micromolar concentration, whole cell and membrane assays",could displace Tb-DeltI in whole cell and membrane binding assays to some extent
same,effect on DPDPE-induced cAMP inhibition,[4],had hardly an effect on the cAMP accumulation
same,effect on DPDPE-induced inhibition of cAMP accumulation,[4],enhanced the DOR agonist induced inhibition of cAMP accumulation significantly at all tested DPDPE concentrations
same,effect on the amount of cAMP,[4],did not have any significant effect on the amount of cAMP
same,enhancement of inhibitory effect of DOR agonists on cAMP accumulation,[4],"able to enhance the inhibitory effect of other DOR agonists, e.g. DeltI"
same,activation of ERK2,[5]; [6],did not result in the activation of ERK2
same,effect on ERK2 activation induced by DPDPE,[5]; 100 nM (1DMe)NPYF together with 100 nM DPDPE,significantly promoted the activation induced by DPDPE
same,DOR internalization,[1]; [6],did not induce receptor internalization at any time-point tested
same,cell surface fluorescence,"[1]; 100 nM (1DMe)NPYF alone, 30 min, vs time-matched control cells",somewhat higher fluorescence
